Assay results reported in PubChem BioAssay (NCI).
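Where inhibition never reached the appropriate level, the endpoint shown equals the highest concentration tested. Otherwise, values were interpolated linearly from a five-concentration, 48-hour dose response in 96-well plates. Here, GI50 denotes the concentration required for 50% inhibition of growth. TGI denotes the concentration required for complete inhibition of growth.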

Legend:
Assay in all cases: growth of human tumour cells (NCI), 48 h
A498 renal = test system: A498 renal
ACHN renal = test system: ACHN renal
CCRF-CEM leukemia = test system: CCRF-CEM leukemia
IGROV1 ovarian = test system: IGROV1 ovarian
KM20L2 colon = test system: KM20L2 colon
MOLT-4 leukemia = test system: MOLT-4 leukemia
NCI-H460 lung = test system: NCI-H460 lung
RPMI-8226 leukemia = test system: RPMI-8226 leukemia
SF-539 CNS = test system: SF-539 CNS
UACC-257 melanoma = test system: UACC-257 melanoma
XF 498 CNS = test system: XF 498 CNS

Row | Structure (SMILES) | TGI (A498 renal) [µM] | TGI (ACHN renal) [µM] | TGI (CCRF-CEM leukemia) [µM] | TGI (IGROV1 ovarian) [µM] | TGI (KM20L2 colon) [µM] | TGI (MOLT-4 leukemia) [µM] | TGI (NCI-H460 lung) [µM] | TGI (RPMI-8226 leukemia) [µM] | TGI (SF-539 CNS) [µM] | TGI (UACC-257 melanoma) [µM] | TGI (XF 498 CNS) [µM] | GI50 (A498 renal) [µM] | GI50 (ACHN renal) [µM] | GI50 (CCRF-CEM leukemia) [µM] | GI50 (IGROV1 ovarian) [µM] | GI50 (MOLT-4 leukemia) [µM] | GI50 (NCI-H460 lung) [µM] | GI50 (RPMI-8226 leukemia) [µM] | GI50 (SF-539 CNS) [µM] | GI50 (UACC-257 melanoma) [µM]
1 | C=Nc1ccc([N+](=O)[O-])cc1 | > 100 | > 100 | > 100 | > 100 | > 100 | > 100 | > 100 | > 31.6 | > 100 | > 100 | > 100 |  |  |  |  |  |  |  |  | 
2 | NNC(=O)CC(=O)Nc1ccc(Cl)cc1 | > 100 | > 100 | > 100 | > 100 |  | > 100 | > 100 | > 100 | > 100 | > 100 |  |  |  |  |  |  |  |  |  | 
3 | CC1(C)C2CCC1(CS(=O)(=O)Nc1ccccc1)C(=O)C2 (stereo not given) | > 100 | > 100 | > 100 | > 100 |  | > 100 | > 100 | > 100 | > 100 | > 100 |  |  |  |  |  |  |  |  |  | 
4 | O=S(=O)(c1ccccc1)n1c(C(O)c2ccncc2)cc2ccccc21 (stereo not given) | > 100 | > 100 | > 100 | > 100 |  | > 100 | > 100 | > 100 | > 100 | 38.9 |  |  |  |  |  |  |  |  |  | 
5 | COC(=O)C1=C(C)N2CCCOC2(C)C(C(=O)OC)C1c1cccc(Cl)c1 (stereo not given) |  | 93.3 | > 100 | > 100 | 64.4 | 45.1 | 61.3 | 52.1 | 93.8 | 57.1 |  |  |  |  |  |  |  |  |  | 
6 | CCNc1nc(N)c(C(=O)c2ccc(Cl)cc2)s1 | 70.3 | > 100 | 22.6 | > 100 |  | > 100 | > 100 | > 100 | > 100 | > 100 |  |  |  |  |  |  |  |  |  | 
7 | O=C(O)CC(NC(=O)Nc1ccc([N+](=O)[O-])cc1)C(=O)Nc1ccc([N+](=O)[O-])cc1 (stereo not given) | > 100 | > 100 | > 100 | > 100 |  | > 100 | > 100 | > 100 | > 100 | > 100 |  |  |  |  |  |  |  |  |  | 
8 | COc1cc2c(cc1OCCCC(=O)Nc1cc(C(=O)Nc3cc(C(=O)Nc4cc(C(=O)NCCCN(C)C)n(C)c4)n(C)c3)n(C)c1)N=C[C@@H]1CCCN1C2=O | 26.4 | 2.99 | > 100 | 8.74 |  | > 100 | 17.6 | 14.6 | 8.72 | 4.09 |  |  |  |  |  |  |  |  |  | 
9 | O=C(Nc1ccccc1)c1cc2c(cc1Cl)Sc1nccn1S2(=O)=O | > 70.9 | > 83.1 | > 75.5 | > 72.1 |  | > 69 | > 60.6 | 70.5 | > 83.6 | 53.7 |  |  |  |  |  |  |  |  |  | 
10 | Cc1cc2c(cc1-c1cc3c(cc1C)C(C(C)C)=C(O)C(=O)/C3=C\Nc1nc(-c3ccccc3)cs1)/C(=C/Nc1nc(-c3ccccc3)cs1)C(=O)C(O)=C2C(C)C | 98.6 | 31.2 | 64.4 | 53.4 |  | > 100 | 46 | > 100 | 43.9 | 47 |  |  |  |  |  |  |  |  |  | 
11 | O=C1Cc2c(-c3ccc(Cl)cc3)cc(-c3ccccc3)nc2-c2ccccc2N1 | 6.67 | 28.3 | > 63.3 | > 50.7 |  | > 76.5 | 10.7 | 60.8 | 25.4 | > 100 |  |  |  |  |  |  |  |  |  | 
12 | CSC1=Nc2ccccc2-c2nc(-c3ccccc3)cc(-c3ccccc3)c2C1 | > 100 | 41.8 | > 100 | 32.1 |  | > 100 | > 100 | > 100 | > 100 | > 100 |  |  |  |  |  |  |  |  |  | 
13 | COc1cc(/C=C2\C[C@H]3[C@@H]4CC=C5C[C@@H](N6CCCC6)CC[C@]5(C)[C@H]4CC[C@]3(C)[C@H]2O)cc(OC)c1OC | 30.2 | 29.3 | > 100 | 30 |  | > 56.2 | 13.6 | 27 | 32.2 | 28.5 |  |  |  |  |  |  |  |  |  | 
14 | CC1(C)O[C@H](C(=O)O)[C@@H](C(=O)O)O1 | > 100 | > 100 | > 100 | > 100 |  | > 100 | > 100 | > 100 | > 100 | > 100 |  |  |  |  |  |  |  |  |  | 
15 | CN(C)N=Nc1ccc([N+](=O)[O-])cc1C(N)=O | > 100 |  | > 100 | > 100 | > 100 | > 100 | > 100 | > 100 | > 100 | > 100 | > 100 |  |  |  |  |  |  |  |  | 
16 | Cc1cc(NS(=O)(=O)c2ccc(NC(=O)c3ccc4nc5ccccc5c(Nc5ccc(S(=O)(=O)N=C(N)N)cc5)c4c3)cc2)no1 | 33.7 | 26.4 | 34.3 | 38.6 |  | 40.8 | 34.5 | 71.9 | 44.9 | 67.1 |  |  |  |  |  |  |  |  |  | 
17 | Brc1ccc2c(-c3nc(-c4c[nH]c5ccccc45)cs3)c[nH]c2c1 | > 92.3 | > 100 | > 100 | > 100 |  | > 87 | > 100 | > 100 | 69.5 | > 100 |  |  |  |  |  |  |  |  |  | 
18 | CC(=O)N1N=C(c2c(O)ccc3ccccc23)CC1C(=O)c1ccco1 (stereo not given) | > 100 | > 100 | 57 | > 100 |  | 60.1 | > 100 | 57.2 | 66.9 | > 100 |  |  |  |  |  |  |  |  |  | 
19 | CCN1CCN(C(=O)[C@]23CC[C@@H](C)[C@H](C)[C@@H]2C2=CC[C@@H]4[C@@]5(C)C/C(=C/c6cccnc6)C(=O)C(C)(C)[C@@H]5CC[C@@]4(C)[C@]2(C)CC3)CC1 | 4.05 | 6.45 | 8.97 | 3.87 |  | 7.38 | 3.45 | 6.35 | 3.05 | 5.95 |  | 1.9 | 2.46 | 2.78 | 1.89 | 2.45 | 1.78 | 2.18 | 1.66 | 2.21
20 | Cc1cn(C2CC(O)C(CO)C2C)c(=O)[nH]c1=O (stereo not given) |  | > 100 | > 100 | > 100 | > 100 | > 100 | > 100 |  | > 100 | > 100 | > 100 |  |  |  |  |  |  |  |  | 
21 | CO/C(=N\N=C\c1ccc(Cl)cc1)c1ccncc1 | > 100 | > 100 | > 100 | > 100 | > 100 | > 100 | > 100 | > 100 | > 100 | > 100 | > 100 |  |  |  |  |  |  |  |  | 
22 | CC/C(Cl)=N\OC(=O)Nc1ccc(OC)cc1 | 37 | 3.5 | 4.97 | 17.5 |  | 5.59 | 44.9 | 5.59 | 9.51 | 30.2 |  |  |  |  |  |  |  |  |  | 
23 | O=C(O)Cc1ccc(Oc2nc3ccccc3nc2-c2cccs2)cc1 | 84.7 | > 100 | > 100 | > 100 |  | > 100 | > 100 | > 100 | > 100 | > 100 |  |  |  |  |  |  |  |  |  | 
24 | O=c1c2ccccc2oc2c1ccc1ncccc12 | 25 | 23.1 | > 100 | 26.4 |  | > 100 | 17 | > 100 | 53.3 | 70.6 |  |  |  |  |  |  |  |  |  | 
25 | Cc1cccc2c1C(=O)C1(Cc3ccccc3C1=O)C2 (stereo not given) | > 100 | > 100 | > 100 | > 100 |  | > 100 | > 100 | > 100 | > 100 | > 100 |  |  |  |  |  |  |  |  |  | 
26 | C/C(O)=C/c1nc2ccccc2nc1/C=C(/C)O | 67.4 | 47.7 | 45.9 | 54.7 |  | 46.5 | 34.4 | 56.5 | 99.3 | 41 |  |  |  |  |  |  |  |  |  | 
27 | CCN(CC)CCCCCCCCNc1c2ccc(Cl)cc2nc2ccc(OC)cc12 | 2.78 | 2.5 | 6.32 | 20.5 |  | 4.68 | 2.56 | 3.34 | 2.87 | 3.57 |  | 1.41 | 1.03 | 0.634 | 3.44 | 0.951 | 0.883 | 0.675 | 1.42 | 1.97
28 | C[C@]12CC[C@H]3[C@@H](CCC4=CC(=O)C=C[C@@]43O)[C@@H]1CCC2=O | > 100 | > 100 | > 100 | > 100 |  | > 100 | > 100 | > 100 | > 100 | > 100 |  |  |  |  |  |  |  |  |  | 
29 | CC(C)(C)C#C[P+](c1ccccc1)(c1ccccc1)c1ccccc1 | 1.35 | 10.3 | 0.699 | 2.23 | 1.19 | 1.57 | 0.475 | 0.212 | 1.39 | 2.07 |  |  |  |  |  |  |  |  |  | 
